Measured values: PubChem BioAssay AID330 (DTP/NCI, 2004)
Several values for one entry are separate records, joined by “and”; a condition that tells them apart may be missing. Equal values may be shown once. Toxic doses and inconclusive results are not listed.

System: P388 leukemia ip, CD2F1 mice, survival T/C
Test: NCI In Vivo Anticancer Drug Screen. Data for tumor model P388 Leukemia (intraperitoneal) in CD2F1 (CDF1) mice
Conditions: endpoint: median survival time, higher = longer survival
Method in brief: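 Mice carrying the transplanted tumor received test compound or vehicle. Survival was recorded in each group, and the value is the treated-group measurement divided by that of the vehicle-treated control group.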

[1] = dose: 100.0 mg/kg/injection, schedule: Q04DX002 (ip), vehicle: saline with Tween-80
[2] = dose: 200.0 mg/kg/injection, schedule: Q04DX002 (ip), vehicle: saline with Tween-80
[3] = dose: 400.0 mg/kg/injection, schedule: Q04DX002 (ip), vehicle: saline with Tween-80
[4] = dose: 7.5 mg/kg/injection, schedule: Q01DX005 (ip), vehicle: saline with Tween-80
[5] = dose: 15.0 mg/kg/injection, schedule: Q01DX005 (ip), vehicle: saline with Tween-80
[6] = dose: 30.0 mg/kg/injection, schedule: Q01DX005 (ip), vehicle: saline with Tween-80
[7] = dose: 60.0 mg/kg/injection, schedule: Q01DX005 (ip), vehicle: saline with Tween-80
[8] = dose: 50.0 mg/kg/injection, schedule: Q01DX009 (ip), vehicle: Klucel (hydroxypropylcellulose) (HPC)
[9] = dose: 100.0 mg/kg/injection, schedule: Q01DX009 (ip), vehicle: Klucel (hydroxypropylcellulose) (HPC)
[10] = dose: 200.0 mg/kg/injection, schedule: Q01DX009 (ip), vehicle: Klucel (hydroxypropylcellulose) (HPC)
[11] = dose: 200.0 mg/kg/injection, schedule: Q01DX009 (ip), vehicle: saline with Tween-80
[12] = dose: 50.0 mg/kg/injection, schedule: Q01DX009 (ip), vehicle: saline with Tween-80
[13] = dose: 100.0 mg/kg/injection, schedule: Q01DX009 (ip), vehicle: saline with Tween-80
[14] = dose: 50.0 mg/kg/injection, schedule: Q01DX005 (ip), vehicle: Klucel (hydroxypropylcellulose) (HPC)
[15] = dose: 100.0 mg/kg/injection, schedule: Q01DX005 (ip), vehicle: Klucel (hydroxypropylcellulose) (HPC)
[16] = dose: 200.0 mg/kg/injection, schedule: Q01DX005 (ip), vehicle: Klucel (hydroxypropylcellulose) (HPC)
[17] = dose: 50.0 mg/kg/injection, schedule: Q01DX009 (ip), vehicle: saline
[18] = dose: 100.0 mg/kg/injection, schedule: Q01DX009 (ip), vehicle: saline
[19] = dose: 200.0 mg/kg/injection, schedule: Q01DX009 (ip), vehicle: saline
[20] = dose: 100.0 mg/kg/injection, schedule: Q04DX002 (ip), vehicle: Klucel (hydroxypropylcellulose) (HPC)
[21] = dose: 200.0 mg/kg/injection, schedule: Q04DX002 (ip), vehicle: Klucel (hydroxypropylcellulose) (HPC)
[22] = dose: 25.0 mg/kg/injection, schedule: Q01DX009 (ip), vehicle: Klucel (hydroxypropylcellulose) (HPC)
[23] = dose: 50.0 mg/kg/injection, schedule: Q01DX005 (ip), vehicle: saline with Tween-80
[24] = dose: 100.0 mg/kg/injection, schedule: Q01DX005 (ip), vehicle: saline with Tween-80
[25] = dose: 50.0 mg/kg/injection, schedule: Q01DX005 (ip), vehicle: saline
[26] = dose: 100.0 mg/kg/injection, schedule: Q01DX005 (ip), vehicle: saline
[27] = dose: 200.0 mg/kg/injection, schedule: Q01DX005 (ip), vehicle: saline
[28] = dose: 60.0 mg/kg/injection, schedule: Q01DX005 (ip), vehicle: Klucel (hydroxypropylcellulose) (HPC)
[29] = dose: 120.0 mg/kg/injection, schedule: Q01DX005 (ip), vehicle: Klucel (hydroxypropylcellulose) (HPC)
[30] = dose: 200.0 mg/kg/injection, schedule: Q01DX005 (ip), vehicle: saline with Tween-80

## Fc1ccc(N/N=c2\nnc3ccc(F)cc3s2)cc1
[1]
  T/C: 102 % of control
[2]
  T/C: 95 % of control
[3]
  T/C: 94 % of control

## CCCN(CCC)CCN1C(=O)NC(C)(c2ccccc2)C1=O (centres undefined)
[4]
  T/C: 100 % of control
[5]
  T/C: 101 % of control and 97 % of control
[6]
  T/C: 99 % of control and 103 % of control
[7]
  T/C: 101 % of control and 94 % of control and 97 % of control

## CCOC(=O)C1(CN2C(=O)c3ccccc3C2=O)C(=O)Nc2ccccc21 (centres undefined)
[8]
  T/C: 87 % of control
[9]
  T/C: 87 % of control
[10]
  T/C: 87 % of control

## CCCCCCCCCCCCCCC(O)C(=O)O (centres undefined)
[11]
  T/C: 89 % of control

## FC(F)(F)SN1COCN(SC(F)(F)F)C1
dose: 30.0 mg/kg/injection, schedule: Q01DX005 (ip), vehicle: saline
  T/C: 96 % of control
dose: 60.0 mg/kg/injection, schedule: Q01DX005 (ip), vehicle: saline
  T/C: 100 % of control
dose: 120.0 mg/kg/injection, schedule: Q01DX005 (ip), vehicle: saline
  T/C: 99 % of control and 102 % of control

## Cc1cccc(C(C#N)C(=O)CCCC(=O)Nc2ccccc2[N+](=O)[O-])c1 (centres undefined)
[7]
  T/C: 98 % of control
dose: 120.0 mg/kg/injection, schedule: Q01DX005 (ip), vehicle: saline with Tween-80
  T/C: 100 % of control
dose: 240.0 mg/kg/injection, schedule: Q01DX005 (ip), vehicle: saline with Tween-80
  T/C: 94 % of control

## CN(C)c1nc(N(C)C)n2c(-c3ccccc3[N+](=O)[O-])nnc2n1
[12]
  T/C: 99 % of control
[13]
  T/C: 102 % of control
[11]
  T/C: 99 % of control

## NC(=O)CCC(NS(=O)(=O)c1ccc(NC(=O)c2ccc(Cl)cc2)cc1)C(=O)O (centres undefined)
[14]
  T/C: 104 % of control
[15]
  T/C: 102 % of control
[16]
  T/C: 102 % of control

## CCCCCCCCCCCCCCCCOc1ccc(S(=O)(=O)N/N=c2/sc(-c3ccccc3Cl)nn2C)cc1C(=O)O
[17]
  T/C: 100 % of control
[18]
  T/C: 100 % of control
[19]
  T/C: 96 % of control

## C1CC2CC1C13OC1CC1OC213 (centres undefined)
[20]
  T/C: 104 % of control
[21]
  T/C: 105 % of control
dose: 400.0 mg/kg/injection, schedule: Q04DX002 (ip), vehicle: Klucel (hydroxypropylcellulose) (HPC)
  T/C: 111 % of control

## CC(=O)C1CCC=C2C1CC1CC2C1(C)C (centres undefined)
[22]
  T/C: 100 % of control
[8]
  T/C: 100 % of control
[9]
  T/C: 104 % of control

## C1CCN(P2(N3CCCCC3)=NP(N3CCCCC3)(N3CCCCC3)=NP(N3CCCCC3)(N3CCCCC3)=NP(N3CCCCC3)(N3CCCCC3)=N2)CC1
[23]
  T/C: 96 % of control
[24]
  T/C: 88 % of control

## COc1cc(OC)c2cc(-n3nnc4cc([N+](=O)[O-])ccc43)c(=O)oc2c1
[4]
  T/C: 100 % of control
[5]
  T/C: 95 % of control
[6]
  T/C: 88 % of control
[7]
  T/C: 88 % of control

## O=C(O)CCC(=O)CCl
dose: 3.13 mg/kg/injection, schedule: Q01DX009 (ip), vehicle: saline
  T/C: 109 % of control
dose: 25.0 mg/kg/injection, schedule: Q04DX003 (ip), vehicle: saline with Tween-80
  T/C: 104 % of control
dose: 50.0 mg/kg/injection, schedule: Q04DX003 (ip), vehicle: saline with Tween-80
  T/C: 108 % of control

## CC(=O)NC1C(Nc2ccc(S(=O)(=O)Nc3ncccn3)cc2)OC(CO)C(O)C1O (centres undefined)
[25]
  T/C: 106 % of control
[26]
  T/C: 99 % of control
[27]
  T/C: 101 % of control

## C=C(C#N)C(NC(C)(C)C)c1ccccc1 (centres undefined)
dose: 12.5 mg/kg/injection, schedule: Q01DX001 (ip), vehicle: saline
  T/C: 96 % of control
dose: 25.0 mg/kg/injection, schedule: Q01DX001 (ip), vehicle: saline
  T/C: 100 % of control
dose: 50.0 mg/kg/injection, schedule: Q01DX001 (ip), vehicle: saline
  T/C: 115 % of control

## CCCCCCCCCCCCCCCCCC(=O)NC[n+]1ccccc1
dose: 50.0 mg/kg/injection, schedule: Q04DX002 (ip), vehicle: Klucel (hydroxypropylcellulose) (HPC)
  T/C: 96 % of control
[20]
  T/C: 87 % of control
[21]
  T/C: 91 % of control

## Cc1ccc(NC(=O)Oc2ccc(C(C)(C)C)cc2Br)c([N+](=O)[O-])c1
[12]
  T/C: 96 % of control
[13]
  T/C: 97 % of control
[11]
  T/C: 101 % of control

## C(=C/c1cc2ccc(C3=NCCN3)cc2o1)/c1cc2ccc(C3=NCCN3)cc2[nH]1
dose: 50.0 mg/kg/injection, schedule: Q04DX003 (ip), vehicle: suspension in saline
  T/C: 114 % of control
dose: 100.0 mg/kg/injection, schedule: Q04DX003 (ip), vehicle: suspension in saline
  T/C: 158 % of control and 164 % of control
dose: 200.0 mg/kg/injection, schedule: Q04DX003 (ip), vehicle: suspension in saline
  T/C: 298 % of control

## CCOc1c(N=Nc2ccc(Cl)cc2)c(C)nn1C(=S)S
[28]
  T/C: 96 % of control
[29]
  T/C: 97 % of control

## Cc1nnc(NC(=O)c2cc(=O)c3ccccc3o2)s1
[1]
  T/C: 99 % of control
[2]
  T/C: 94 % of control
[3]
  T/C: 93 % of control

## CCOc1ccn(C2C=CC(=O)O2)c(=O)n1 (centres undefined)
dose: 6.25 mg/kg/injection, schedule: Q01DX005 (ip), vehicle: saline
  T/C: 102 % of control and 105 % of control
dose: 12.5 mg/kg/injection, schedule: Q01DX005 (ip), vehicle: saline
  T/C: 110 % of control and 112 % of control
dose: 25.0 mg/kg/injection, schedule: Q01DX005 (ip), vehicle: saline
  T/C: 111 % of control and 118 % of control
[25]
  T/C: 118 % of control and 120 % of control

## Cc1cc(NCCc2ccccc2)cc(=O)n1CCc1ccccc1
[28]
  T/C: 97 % of control
[29]
  T/C: 100 % of control
dose: 240.0 mg/kg/injection, schedule: Q01DX005 (ip), vehicle: Klucel (hydroxypropylcellulose) (HPC)
  T/C: 94 % of control

## CC1C(=O)CCC2(C)C1CCC1C3CCC(O)C3(C)CCC12 (centres undefined)
dose: 12.5 mg/kg/injection, schedule: Q01DX009 (ip), vehicle: saline with Tween-80
  T/C: 95 % of control
dose: 25.0 mg/kg/injection, schedule: Q01DX009 (ip), vehicle: saline with Tween-80
  T/C: 109 % of control
[12]
  T/C: 95 % of control

## COc1ccc(Sc2c(C(=O)O)cccc2C(=O)O)cc1
[1]
  T/C: 102 % of control
[2]
  T/C: 100 % of control
[3]
  T/C: 101 % of control

## CC(O)C(=O)N(CCO)CCO (centres undefined)
[25]
  T/C: 108 % of control
[26]
  T/C: 101 % of control
[27]
  T/C: 104 % of control

## CC(=O)Nc1ccc(S(=O)(=O)n2c(=O)oc3cc(Cl)ccc32)cc1
[14]
  T/C: 86 % of control
[15]
  T/C: 99 % of control
[16]
  T/C: 86 % of control

## CCSC(=S)Nc1nc2ccc(C)cc2s1
dose: 6.25 mg/kg/injection, schedule: Q01DX009 (ip), vehicle: Klucel (hydroxypropylcellulose) (HPC)
  T/C: 107 % of control
dose: 12.5 mg/kg/injection, schedule: Q01DX009 (ip), vehicle: Klucel (hydroxypropylcellulose) (HPC)
  T/C: 89 % of control
[22]
  T/C: 103 % of control

## COC(=O)CC1(C(=O)OC)Oc2ccc(Br)cc2C(=O)N1c1cccc(Cl)c1Cl (centres undefined)
[23]
  T/C: 100 % of control
[24]
  T/C: 91 % of control
[30]
  T/C: 100 % of control

## Cn1c2ccccc2c2nnc(-n3nc(-c4ccc(Br)cc4)cc3N)nc21
dose: 12.5 mg/kg/injection, schedule: Q01DX005 (ip), vehicle: saline with Tween-80
  T/C: 98 % of control
dose: 25.0 mg/kg/injection, schedule: Q01DX005 (ip), vehicle: saline with Tween-80
  T/C: 87 % of control
[24]
  T/C: 93 % of control
[30]
  T/C: 95 % of control

## CNC(=O)N(C)CN(C)C(=O)NC
[8]
  T/C: 100 % of control
[9]
  T/C: 106 % of control
[10]
  T/C: 107 % of control

## Cc1ccc(NCC2CCCN3CCCCC23)c2c(=O)c3ccccc3sc12 (centres undefined)
[23]
  T/C: 101 % of control
[17]
  T/C: 97 % of control
[24]
  T/C: 96 % of control
[18]
  T/C: 99 % of control
[30]
  T/C: 106 % of control
[19]
  T/C: 124 % of control
